# Test results as given in patent EP2966448B1, “METHOD FOR THE PREDICTION OR PROGNOSIS OF THE RESPONSE OF A HUMAN SUBJECT SUFFERING FROM CANCER TO TREATMENT WITH AN ANTAGONIST OF THE NK1 RECEPTOR” (priority 2013, dated 2014).
# Where two headings read alike, the source gives them in different places.
# Tests used:
# Gastric carcinoma = experiment: Inhibition of primary tumor cell cultures (48 hours) vs NK1 receptor immunostaining (Example 1); assay type: cell-based; conditions: Homo sapiens, 1 micromolar, read-out: Percentage of inhibition of cell cultures
# Procedure: (§1) Cell cultures. To obtain tumor cells from human primary tumors we used the method described in De Bari et al. (De Bari et al. 2001). Briefly, small pieces of the tumors were digested into a hyaluronidase solution (Sigma-Aldrich, USA) at a concentration of 1 mg/ml during 15 minutes at 37°C, and then they were treated with 6 mg/ml of collagenase type IV (Invitrogen) during 2 hours at 37°C. Consecutively, cells were washed, and resuspended in the DMEM culture medium with high concentration of glucose (Dulbecco's Modified Eagle's Medium, Invitrogen) supplemented with 1% of antibiotics-antimycotics (Invitrogen) and with 1% of sodium pyruvate (Invitrogen), and the cells were seeded in culture slides at a concentration of 10.000 cells per square centimeter. When cells reached confluence, the adherent cells were separated using sterile trypsin at 0,5% (Invitrogen) and they were used among passages 3 and 9. For the assays shown next, tumor cells were seeded on slides at a concentration of 25.000 cells per well. A total of 6 wells containing the tumor cells were used as survival control. […] All the cultures were kept during 48 hours and later on recollected for their analysis.
# (§2) Immunohistochemistry techniques. The presence of NK1 receptors was also analyzed using immunohistochemistry techniques. Briefly, a sample of each of the cultures of the cell lines used in the present invention, was centrifuged (5 minutes at 1.500 rpm) and the pellet obtained was dehydrated using increasing concentrations of ethanol and, finally, xylol. Then, said dehydrated samples were embedded in paraffin, creating a block of cells. Such paraffin blocks were cut with a microtome at 5 microns thickness, and were placed on microscope slides adequate to perform immunohistochemistry techniques. Consecutively, they were de-paraffinized by immersing them in xylol, to be finally hydrated using a solution containing decreasing concentrations of ethanol, and finally submerged them into water. […] After this, the samples were left to cool down at room temperature for 10 minutes. The endogenous peroxidase activity was blocked with 3% peroxide of hydrogen for 30 minutes at room temperature. After washing the samples with 0.05 M of Tris buffer, they were incubated with 10% non-immune pork serum at for 30 minutes at room temperature. To analyze the expression of NK1 receptors, the cellular samples were incubated in the presence of anti-NK1 antibodies (S8305, Sigma-Aldrich) diluted 1:1000, overnight at 4°C. Afterwards, the samples were washed in Tris buffer 0.05 M at room temperature. The next step was the addition of Envision System-HRP (Dako) reagents for 30 minutes at room temperature. Then, the samples were washed again in Tris buffer 0.05 M and the immunoreactivity was visualized through light microscopy with a chromogenic solution containing 3,3'-Diaminobenzidine (DAB+; Dako, USA). To differentiate the cell nuclei, they were slightly stained with hematoxylin. As negative control, it was used samples not incubated with the primary antibody anti-NK1, which was replaced by non-immune serum. All the samples were evaluated.
# (§3) To value the immunostaining in each of the cases six cuts were performed to be analyzed by the immunohistochemistry technique. In each of the six cuts, it was counted cells in 20 fields (magnification 400x) using an Olympus microscope (model CX31). In each field it was counted the total number of cells and the number of cells presenting immunostaining, calculating afterwards the percentage of cells which presented immunostaining.
# Pancreatic carcinoma = experiment: as above; assay type: cell-based; conditions: Homo sapiens, 1 micromolar, read-out: Percentage of inhibition of cell cultures
# Procedure: as §1, §2, §3
# Renal cell carcinoma = experiment: as above; assay type: cell-based; conditions: Homo sapiens, 1 micromolar, read-out: Percentage of inhibition of cell cultures
# Procedure: as §1, §2, §3
# Breast carcinoma = experiment: as above; assay type: cell-based; conditions: Homo sapiens, 1 micromolar, read-out: Percentage of inhibition of cell cultures
# Procedure: as §1, §2, §3
# [1] = system: Carcinoma of the uterine cervix; experiment: as above; assay type: cell-based; conditions: Homo sapiens, 1 micromolar, read-out: Percentage of inhibition of cell cultures
# Procedure: as §1, §2, §3
# Fibrosarcoma = experiment: as above; assay type: cell-based; conditions: Homo sapiens, 1 micromolar, read-out: Percentage of inhibition of cell cultures
# Procedure: as §1, §2, §3
# Neuroblastoma = experiment: as above; assay type: cell-based; conditions: Homo sapiens, 1 micromolar, read-out: Percentage of inhibition of cell cultures
# Procedure: as §1, §2, §3
# Myeloma = experiment: as above; assay type: cell-based; conditions: Homo sapiens, 1 micromolar, read-out: Percentage of inhibition of cell cultures
# Procedure: as §1, §2, §3
# [2] = system: Gastric carcinoma (Adenocarcinoma); experiment: Inhibition of primary tumor cell cultures vs Kras mutation (Example 2); assay type: cell-based, human; conditions: Homo sapiens, Cases with Kras mutated; 100 micromolar; read-out: Percentage of inhibition of cell cultures
# Procedure: (§4) Cell cultures. […] Briefly, small pieces of the tumors were digested into a hyaluronidase solution (Sigma-Aldrich, USA) at a concentration of 1 mg/ml during 15 minutes at 37°C, and then they were treated with 6 mg/ml of collagenase type IV (Invitrogen) during 2 hours at 37°C. Consecutively, cells were washed, and resuspended in the DMEM culture medium with high concentration of glucose (Dulbecco's Modified Eagle's Medium, Invitrogen) supplemented with 1% of antibiotics-antimycotics (Invitrogen) and with 1% of sodium pyruvate (Invitrogen), and the cells were seeded in culture slides at a concentration of 10.000 cells per square centimeter. When cells reached confluence, the adherent cells were separated using sterile trypsin at 0,5% (Invitrogen) and they were used among passages 3 and 9. For the assays shown next, tumor cells were seeded on slides at a concentration of 25.000 cells per well. A total of 6 wells containing the tumor cells were used as survival control. […] All the cultures were kept during 48 hours and later on recollected for their analysis.
# (§5) In each case the presence or not of mutations in K-ras gene was determined.
# (§6) To determine the existence of mutations in the K-ras gene DNA from cancer tumor cells was extracted from samples obtained from the different cancer tumor cells, using DNA extraction kits from Takara (Madison, WI, US) or Ambion (Huntingdon, Cambridgeshire, United Kingdom), following the manufacturer's instructions, and as it has been previously published (Di Fiore F, et al. 2007). Consecutively it was analyzed by sequencing the exon 2 of the KRAS gene, , by means of PCR amplification from previously extracted cancer tumor DNA, using the following sense primer (SEQ ID NO. 15): 5'-[sequence]-3' and anti-sense primer (SEQ ID NO. 16): 5'-[sequence]-3'. After the purification using the Qiagen extraction kit, the PCR products were sequenced using the Big Dye Terminator Kit V3.1 (Applied Biosystems, Foster City, CA, U.S.) and an ABI Prism 377 or 3100 DNA sequencer (Applied Biosystems). The presence of a heterozygous mutation in the KRAS gene in cancer tumor cells of the cultures was defined as the appearance of a mutant peak of a height of at least a third of the wild type. All the sequence analysis were executed at least twice in two independent PCR.
# (§7) The antibody against NK1 receptor (Table 16) was used at 1/50 concentration. The percentages of inhibition are expressed in percentage of variation in relation to control ± standard deviation.
# [3] = system: Lung carcinoma (small cell lung carcinoma); experiment: as above; assay type: cell-based, human; conditions: Homo sapiens, Cases with Kras mutated; 100 micromolar; read-out: Percentage of inhibition of cell cultures
# Procedure: (§8) To obtain tumor cells from human primary tumors we used the method described in De Bari et al. (De Bari et al. 2001). Briefly, small pieces of the tumors were digested into a hyaluronidase solution (Sigma-Aldrich, USA) at a concentration of 1 mg/ml during 15 minutes at 37°C, and then they were treated with 6 mg/ml of collagenase type IV (Invitrogen) during 2 hours at 37°C. Consecutively, cells were washed, and resuspended in the DMEM culture medium with high concentration of glucose (Dulbecco's Modified Eagle's Medium, Invitrogen) supplemented with 1% of antibiotics-antimycotics (Invitrogen) and with 1% of sodium pyruvate (Invitrogen), and the cells were seeded in culture slides at a concentration of 10.000 cells per square centimeter. When cells reached confluence, the adherent cells were separated using sterile trypsin at 0,5% (Invitrogen) and they were used among passages 3 and 9. For the assays shown next, tumor cells were seeded on slides at a concentration of 25.000 cells per well. A total of 6 wells containing the tumor cells were used as survival control. […] All the cultures were kept during 48 hours and later on recollected for their analysis.
# as §5, §6, §7
# [4] = system: Thyroid carcinoma (papillary carcinoma); experiment: as above; assay type: cell-based, human; conditions: Homo sapiens, Cases with Kras mutated; 100 micromolar; read-out: Percentage of inhibition of cell cultures
# Procedure: as §8, §5, §6, §7
# Prostate carcinoma [5] = experiment: as above; assay type: cell-based, human; conditions: Homo sapiens, Cases with Kras mutated; 100 micromolar; read-out: Percentage of inhibition of cell cultures
# Procedure: as §1, §5, §6
# (§9) The percentages of inhibition are expressed in percentage of variation in relation to control ± standard deviation.
# [6] = system: Undifferentiated Pleomorphic Sarcoma (malignant fibrous histiocytoma grade 3); experiment: as above; assay type: cell-based, human; conditions: Homo sapiens, Cases with Kras mutated; 100 micromolar; read-out: Percentage of inhibition of cell cultures
# Procedure: as §1, §5, §6, §9
# [7] = system: Melanoma (Nodular Melanoma); experiment: as above; assay type: cell-based, human; conditions: Homo sapiens, Cases with Kras mutated; 100 micromolar; read-out: Percentage of inhibition of cell cultures
# Procedure: as §1, §5, §6, §9
# [8] = system: human primary tumor cells; experiment: Inhibition of primary tumor cell cultures vs absence or presence of ERK  protein (Example 3; tumor type per table line); assay type: cell-based; conditions: Non Hodgkin Lymphoma T (diffuse T cell lymphoma), 100 micromolar
# Procedure: as §4
# Consecutively, the cells were placed in cultures in the presence of several antagonists of the NK1 receptor.
# In each case it was determined the presence or absence of the downstream effector in the MAP Kinases ERK pathway.
# To determine the presence of the ERK protein, it was performed a Western Blot technique, using as primary antibody: Phospho-p44/42 MAPK (Erk1/2) (Thr202/Tyr204) (D13.14.4E) XP® Rabbit mAb (4370, Cell Signalling). To determine the presence of the MEK protein, it was performed the Western Blot technique, using as primary antibody Phospho-MEK1/2 (Ser217/221) (9121, Cell Signalling).
# The antibody against NK1 receptor (Table 21) was used at 1/50 concentration. The percentages of inhibition are expressed in percentages of variation in relation to control ± standard deviation.
# [9] = system: human primary tumor cells; experiment: Inhibition of primary tumor cell cultures vs absence or presence of AKT protein (Example 4; tumor type per table line); assay type: cell-based; conditions: Non Hodgkin Lymphoma B (diffuse B cell lymphoma); cases with presence of AKT; 100 micromolar
# Procedure: as §4
# Afterwards, the cells were cultured in presence of several antagonists of the NK1 receptor.
# In each case it was determined the presence or absence of the AKT protein effector downstream in the PI3 Kinases pathway.
# To determine the presence of the AKT protein in the different cultures Western Blot technique was performed (following the description in example 1-Western Blot section), but using as primary antibody with reference: Akt (pan) (11E7) Rabbit mAb (4685, Cell Signalling).
# The antibody against NK1 receptor (Table 26) was used at 1/50 concentration. The percentages of inhibition are expressed in percentage of variation in relation to control ± standard deviation.
# [10] = system: human primary tumor cells; experiment: Inhibition of primary tumor cell cultures vs amplification of the gene encoding the NK1 receptor (Example 6; tumor type per table line); assay type: cell-based; conditions: Non Hodgkin Lymphoma T (diffuse T cell lymphoma); Cases with amplification of the gene that encodes for the NK1 receptor; 100 micromolar
# Procedure: as §4
# The presence or absence of the amplification of the gene encoding for the NK1 receptor was determined, and then the cells were cultured in the presence of several antagonists of the NK1 receptor.
# For each case, the presence or absence of amplification of the gene encoding for the NK1 receptor was determined.
# In order to determine the presence of the amplification (increase in the number of copies) of the gene encoding the NK1 receptor (TAC1R), it was used the comparative genomic hybridization technique (CGH Array). Firstly genomic DNA was extracted from each case. Later, it was performed the marking and hybridization of the DNA of each sample together with DNA of a commercial reference without genomic alterations (from masculine or feminine sex, depending on the gender of the patient from whom the samples were obtained). The Array is Sureprint G3 Human CGH Microarray from the company Agilent was used, with an average separation between probes of 5.3Kb and 4.6Kb for the genes RefSeq. The reading of the microarray was done with the DNA Microarray Scanner G2565CA from Agilent, at a resolution of 3 µm. The analysis of the results was performed with the software Cytogenomics v 2.0.6.0 from Agilent with ADM-2: 6.0; Centralization: ON (Threshold: 6.0, Bin size: 10); Fuzzy zero: ON; Aberration filters: ON (minProbes=5 and minAvgAbsLopRatio= 0,5); Feature Level Filters : ON. The genomic coordinates are coincident with the NCBI36genome (hg18). Cases were distributed in two groups: Group I for those cases without the amplification of the gene encoding the NK1 receptor (locus 2p13.1-p12), and Group II for those cases with amplification of the gene encoding the NK1receptor (locus 2p13.1-p12).
# The antibody against NK1 receptor (Table 36) was used at 1/50 concentration. The percentages of inhibition are expressed in percentages of variation in relation to control ± standard deviation.
# Endometrium carcinoma = experiment: cells; conditions: Homo sapiens, 1 micromolar
# Prostate carcinoma [11] = experiment: cells; conditions: Homo sapiens, 1 micromolar
# Procedure: as §1, §2, §3
# [12] = NK1 receptor immunostaining Group 1 (less than 20% of the cells)
# [13] = NK1 receptor immunostaining Group 2 (20-80% of the cells)
# [14] = NK1 receptor immunostaining Group 3 (more than 80% of the cells)
# [15] = NK1 receptor immunostaining Intensity grade 1
# [16] = NK1 receptor immunostaining Intensity grade 2
# [17] = NK1 receptor immunostaining Intensity grade 3
# [18] = read-out: Percentage of inhibition of cell cultures, NK1 receptor immunostaining Group 1 (less than 20% of the cells)
# [19] = read-out: Percentage of inhibition of cell cultures, NK1 receptor immunostaining Group 2 (20-80% of the cells)
# [20] = read-out: Percentage of inhibition of cell cultures, NK1 receptor immunostaining Group 3 (more than 80% of the cells)
# [21] = read-out: Percentage of inhibition of cell cultures, NK1 receptor immunostaining Intensity grade 1
# [22] = read-out: Percentage of inhibition of cell cultures, NK1 receptor immunostaining Intensity grade 2
smiles,measurement,setting,value
C[C@@H](O[C@H]1OCCN(Cc2n[nH]c(=O)[nH]2)[C@H]1c1ccc(F)cc1)c1cc(C(F)(F)F)cc(C(F)(F)F)c1 [Aprepitant],inhibition at 1 µM,Gastric carcinoma; [12],10 ± 3%
same,inhibition at 1 µM,Gastric carcinoma; [13],45 ± 3%
same,inhibition at 1 µM,Gastric carcinoma; [14],92 ± 3%
same,inhibition at 1 µM,Gastric carcinoma; [15],25 ± 6%
same,inhibition at 1 µM,Gastric carcinoma; [16],57 ± 5%
same,inhibition at 1 µM,Gastric carcinoma; [17],96 ± 4%
same,inhibition at 1 µM,Pancreatic carcinoma; [12],12 ± 3%
same,inhibition at 1 µM,Pancreatic carcinoma; [13],47 ± 1%
same,inhibition at 1 µM,Pancreatic carcinoma; [14],94 ± 6%
same,inhibition at 1 µM,Pancreatic carcinoma; [15],27 ± 7%
same,inhibition at 1 µM,Pancreatic carcinoma; [16],56 ± 5%
same,inhibition at 1 µM,Pancreatic carcinoma; [17],94 ± 3%
same,inhibition at 1 µM,Renal cell carcinoma; [12],10 ± 3%
same,inhibition at 1 µM,Renal cell carcinoma; [13],45 ± 4%
same,inhibition at 1 µM,Renal cell carcinoma; [14],93 ± 6%
same,inhibition at 1 µM,Renal cell carcinoma; [15],27 ± 6%
same,inhibition at 1 µM,Renal cell carcinoma; [16],57 ± 6%
same,inhibition at 1 µM,Renal cell carcinoma; [17],95 ± 6%
same,inhibition at 1 µM,Breast carcinoma; [12],11 ± 1%
same,inhibition at 1 µM,Breast carcinoma; [13],46 ± 3%
same,inhibition at 1 µM,Breast carcinoma; [14],94 ± 5%
same,inhibition at 1 µM,Breast carcinoma; [15],28 ± 6%
same,inhibition at 1 µM,Breast carcinoma; [16],58 ± 5%
same,inhibition at 1 µM,Breast carcinoma; [17],95 ± 7%
same,inhibition at 1 µM,[1]; [12],10 ± 2%
same,inhibition at 1 µM,[1]; [13],48 ± 5%
same,inhibition at 1 µM,[1]; [14],95 ± 5%
same,inhibition at 1 µM,[1]; [15],27 ± 4%
same,inhibition at 1 µM,[1]; [16],56 ± 4%
same,inhibition at 1 µM,[1]; [17],95 ± 4%
same,inhibition at 1 µM,Fibrosarcoma; [12],10 ± 3%
same,inhibition at 1 µM,Fibrosarcoma; [13],48 ± 3%
same,inhibition at 1 µM,Fibrosarcoma; [14],96 ± 5%
same,inhibition at 1 µM,Fibrosarcoma; [15],27 ± 6%
same,inhibition at 1 µM,Fibrosarcoma; [16],54 ± 5%
same,inhibition at 1 µM,Fibrosarcoma; [17],95 ± 5%
same,inhibition at 1 µM,Neuroblastoma; [12],10 ± 3%
same,inhibition at 1 µM,Neuroblastoma; [13],44 ± 5%
same,inhibition at 1 µM,Neuroblastoma; [14],97 ± 5%
same,inhibition at 1 µM,Neuroblastoma; [15],27 ± 6%
same,inhibition at 1 µM,Neuroblastoma; [16],57 ± 6%
same,inhibition at 1 µM,Neuroblastoma; [17],97 ± 5%
same,inhibition at 1 µM,Myeloma; [12],11 ± 2%
same,inhibition at 1 µM,Myeloma; [13],46 ± 5%
same,inhibition at 1 µM,Myeloma; [14],95 ± 4%
same,inhibition at 1 µM,Myeloma; [15],28 ± 5%
same,inhibition at 1 µM,Myeloma; [16],55 ± 3%
same,inhibition at 1 µM,Myeloma; [17],92 ± 5%
same,inhibition at 100 µM,[2],24 ± 3%
same,inhibition at 100 µM,[3],22 ± 4%
same,inhibition at 100 µM,[4],25 ± 4%
same,inhibition at 100 µM,Prostate carcinoma [5],24 ± 3%
same,inhibition at 100 µM,[6],24 ± 3%
same,inhibition at 100 µM,[7],26 ± 4%
same,Percentage of inhibition of cell cultures,[8]; cases with presence of ERK,94±4 percentage
same,Percentage of inhibition of cell cultures,[8]; cases without presence of ERK,23±3 percentage
same,Percentage of inhibition of cell cultures,[9],95±3 percentage
same,Percentage of inhibition of cell cultures,[10],94±7 percentage
same,inhibition at 1 µM,Endometrium carcinoma; [18],12 ± 2%
same,inhibition at 1 µM,Endometrium carcinoma; [19],49 ± 2%
same,inhibition at 1 µM,Endometrium carcinoma; [20],95 ± 4%
same,inhibition at 1 µM,Endometrium carcinoma; [21],25 ± 7%
same,inhibition at 1 µM,Endometrium carcinoma; [22],59 ± 5%
same,inhibition at 1 µM,Prostate carcinoma [11]; [18],11 ± 3%
same,inhibition at 1 µM,Prostate carcinoma [11]; [19],46 ± 6%
same,inhibition at 1 µM,Prostate carcinoma [11]; [20],95 ± 5%
same,inhibition at 1 µM,Prostate carcinoma [11]; [21],27 ± 5%
same,inhibition at 1 µM,Prostate carcinoma [11]; [22],58 ± 6%
same,inhibition at 1 µM,"Prostate carcinoma [11]; read-out: Percentage of inhibition of cell cultures, NK1 receptor immunostaining Intensity grade 3",93 ± 7%
